Some test systems named below: IGROV1 ovarian; OVCAR-4 ovarian; SK-MEL-2 melanoma; HCT-116 colon; OVCAR-3 ovarian; HS 578T breast; HOP-62 NSCLC; HOP-92 NSCLC; SF-295 CNS; KM12 colon.
Holding throughout (test): growth of human tumour cells (NCI), 48 h

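Assay format: 96-well plates, 48-hour exposure. GI50 is the concentration that inhibits growth by half. At the TGI there is no net growth.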 Bounds are passed on as bounds.

For the compound `C=C(CN1CCc2c([nH]c3ccccc23)C1)c1ccc(C(=O)Nc2ccccc2N)cc1`, the GI50 in the experiment with IGROV1 ovarian is 1.08 µM; in the experiment on OVCAR-4 ovarian, 5.48 µM; in the experiment on SK-MEL-2 melanoma it was 4.54 µM; in the experiment with HCT-116 colon, 2.19 µM; in the experiment on OVCAR-3 ovarian it was 18.4 µM; in the experiment on HS 578T breast, 4.75 µM. The GI50 was 4.08 µM with HOP-62 NSCLC, 1.66 µM in the experiment with HOP-92 NSCLC, 16.6 µM in the experiment on SF-295 CNS and 3.42 µM in the experiment on KM12 colon. Moreover, the TGI turned out to be 18.9 µM in the experiment on IGROV1 ovarian; 13.5 µM in the experiment on OVCAR-4 ovarian; 22 µM with SK-MEL-2 melanoma; 32.9 µM in the experiment with HCT-116 colon; 29.1 µM with OVCAR-3 ovarian; 23.3 µM in the experiment on HS 578T breast. For the same compound, the TGI with HOP-62 NSCLC was 20.8 µM; in the experiment with HOP-92 NSCLC, 11.4 µM; in the experiment with SF-295 CNS it was 27.8 µM; with KM12 colon, 12.6 µM.
Consider `COc1ccc2c(c1)CN([C@@H](C)[C@H]1CC[C@H]3[C@@H]4CC[C@H]5C[C@@H](O)CC[C@]5(C)[C@H]4CC[C@]13C)CO2`, for which the TGI with IGROV1 ovarian worked out at 14.6 µM; in the experiment on OVCAR-4 ovarian it was 17.8 µM; in the experiment with SK-MEL-2 melanoma, 3.83 µM; in the experiment on HCT-116 colon it was 7.22 µM; with OVCAR-3 ovarian it was 18 µM; in the experiment on HS 578T breast, 4.14 µM. Moreover, the TGI with HOP-62 NSCLC came to 4 µM; in the experiment on HOP-92 NSCLC it was 3.71 µM; in the experiment on SF-295 CNS it was 2.98 µM; in the experiment on KM12 colon, 4.31 µM.
With `c1ccc(-c2nc3n(c2-c2ccc4c(c2)OCO4)CCC3)nc1`, the GI50 in the experiment with IGROV1 ovarian is 7.37 µM; in the experiment on OVCAR-4 ovarian it was 2.41 µM; with SK-MEL-2 melanoma, 11.7 µM; with HCT-116 colon it was 8.16 µM; with OVCAR-3 ovarian it was 7.69 µM; in the experiment on HS 578T breast, 8.24 µM. Also, the GI50 was 4.93 µM in the experiment on HOP-62 NSCLC, 3.48 µM in the experiment on HOP-92 NSCLC, 4.8 µM with SF-295 CNS and 5.9 µM in the experiment on KM12 colon. Besides, the TGI with IGROV1 ovarian is greater than 23.2 µM; in the experiment on OVCAR-4 ovarian, 15.8 µM; in the experiment with SK-MEL-2 melanoma, greater than 25 µM; in the experiment on HCT-116 colon, greater than 25 µM; with OVCAR-3 ovarian, greater than 22.6 µM; in the experiment with HS 578T breast, greater than 25 µM. For the same compound, the TGI is greater than 17.6 µM in the experiment with HOP-62 NSCLC, 20.8 µM in the experiment on HOP-92 NSCLC, 24.5 µM with SF-295 CNS and greater than 25 µM with KM12 colon.
`N=c1ccc2nc3ccc(N)cc3sc-2c1`: the GI50 was 6.77 µM in the experiment on IGROV1 ovarian; 3.78 µM in the experiment on OVCAR-4 ovarian; 6.08 µM in the experiment with SK-MEL-2 melanoma; 2.67 µM in the experiment with HCT-116 colon; 3.21 µM in the experiment with OVCAR-3 ovarian; 20.9 µM in the experiment with HS 578T breast. The GI50 with HOP-62 NSCLC is 5.06 µM; in the experiment on HOP-92 NSCLC, 17.7 µM; in the experiment with SF-295 CNS, 4.28 µM; with KM12 colon, 4.24 µM. Moreover, the TGI in the experiment with IGROV1 ovarian was 75 µM; with OVCAR-4 ovarian it was 13.5 µM; with SK-MEL-2 melanoma it was 22.5 µM; in the experiment with HCT-116 colon it was 10.5 µM; in the experiment with OVCAR-3 ovarian it was 13.7 µM; in the experiment with HS 578T breast it was greater than 100 µM. Moreover, the TGI was 49.4 µM in the experiment on HOP-62 NSCLC, 61 µM in the experiment on HOP-92 NSCLC, 59.1 µM in the experiment with SF-295 CNS and greater than 100 µM with KM12 colon.
`O=C(Nc1cccc2[nH]c(C(F)(F)F)nc12)c1cc(Cl)ccc1Cl`: the GI50 is 6.04 µM in the experiment with IGROV1 ovarian; 2.59 µM with OVCAR-4 ovarian; 2.79 µM with SK-MEL-2 melanoma; 3.06 µM with HCT-116 colon; 3.4 µM with OVCAR-3 ovarian; 2.91 µM in the experiment on HS 578T breast. The GI50 is 2.34 µM in the experiment with HOP-62 NSCLC, 2.09 µM in the experiment with HOP-92 NSCLC, 2.23 µM with SF-295 CNS and 3.37 µM in the experiment with KM12 colon. Further, the TGI is greater than 100 µM in the experiment on IGROV1 ovarian; greater than 100 µM in the experiment with OVCAR-4 ovarian; 6.66 µM in the experiment with SK-MEL-2 melanoma; 12.9 µM in the experiment on HCT-116 colon; 10.3 µM with OVCAR-3 ovarian; 12.9 µM in the experiment with HS 578T breast. For the same compound, the TGI with HOP-62 NSCLC was 7.37 µM; with HOP-92 NSCLC, 6.72 µM; with SF-295 CNS, 6.55 µM; in the experiment on KM12 colon it was 11.2 µM.
As for `CC(=O)c1ccc2c(c1)N(CCCN1CCN(CCO)CC1)c1ccccc1S2`, the GI50 in the experiment on IGROV1 ovarian is 2.16 µM; with OVCAR-4 ovarian, 3.98 µM; in the experiment with SK-MEL-2 melanoma it was 2.11 µM; with HCT-116 colon, 1.81 µM; in the experiment with OVCAR-3 ovarian it was 2.85 µM; in the experiment with HS 578T breast, 1.66 µM. Moreover, the GI50 was 1.99 µM with HOP-62 NSCLC, 1.1 µM in the experiment on HOP-92 NSCLC, 2.15 µM in the experiment on SF-295 CNS and 1.97 µM with KM12 colon. Besides, the TGI in the experiment with IGROV1 ovarian was 6.12 µM; in the experiment on OVCAR-4 ovarian it was 14.7 µM; in the experiment with SK-MEL-2 melanoma it was 6.02 µM; in the experiment on HCT-116 colon, 3.49 µM; in the experiment with OVCAR-3 ovarian it was 8.9 µM; with HS 578T breast it was 4.52 µM. In addition, the TGI in the experiment with HOP-62 NSCLC was found to be 4.77 µM; in the experiment with HOP-92 NSCLC, 5.97 µM; in the experiment with SF-295 CNS, 4.26 µM; with KM12 colon it was 4.04 µM.
On to `C=C1C(=O)O[C@H]2[C@H]1CC/C(Cn1cc(-c3ccc(N)cc3)nn1)=C\CC[C@@]1(C)O[C@@H]21`, for which the GI50 is 2.96 µM with IGROV1 ovarian; 4.9 µM in the experiment with OVCAR-4 ovarian; 10.6 µM with SK-MEL-2 melanoma; 1.55 µM in the experiment on HCT-116 colon; 1.62 µM in the experiment on OVCAR-3 ovarian; 4.46 µM in the experiment on HS 578T breast. Further, the GI50 is 10.2 µM in the experiment on HOP-62 NSCLC, 2.13 µM in the experiment on HOP-92 NSCLC, 12.1 µM in the experiment on SF-295 CNS and 11.4 µM with KM12 colon. The TGI with IGROV1 ovarian worked out at 14.1 µM; with OVCAR-4 ovarian it was 18.6 µM; in the experiment on SK-MEL-2 melanoma, 28.9 µM; in the experiment with HCT-116 colon, 4.22 µM; in the experiment on OVCAR-3 ovarian it was 3.99 µM; in the experiment on HS 578T breast, 27.4 µM. Besides, the TGI is 23.8 µM with HOP-62 NSCLC, 5.33 µM with HOP-92 NSCLC, 26.5 µM in the experiment with SF-295 CNS and 26.9 µM in the experiment on KM12 colon.
Take `CCCc1nc(Cl)nc(Cl)c1Cl`: the TGI came to 2.14 µM in the experiment with IGROV1 ovarian; 0.289 µM in the experiment with OVCAR-4 ovarian; 2.07 µM in the experiment on SK-MEL-2 melanoma; 1.3 µM with HCT-116 colon; 0.534 µM in the experiment with OVCAR-3 ovarian; 8.46 µM in the experiment with HS 578T breast. For the same compound, the TGI with HOP-62 NSCLC was 2.44 µM; with HOP-92 NSCLC, 0.532 µM; in the experiment on SF-295 CNS it was 6.89 µM; in the experiment on KM12 colon, 2.77 µM.
For `Cn1cc(-c2cc(-c3cn(C)c4ccc(Cl)cc34)[nH]n2)c2cc(Cl)ccc21`, the GI50 in the experiment on IGROV1 ovarian was 2.55 µM; in the experiment on OVCAR-4 ovarian it was 5.82 µM; in the experiment on SK-MEL-2 melanoma, 2.34 µM; in the experiment with HCT-116 colon, 3.82 µM; in the experiment with OVCAR-3 ovarian, 4.41 µM; with HS 578T breast, 3.27 µM. The GI50 was 7.98 µM with HOP-62 NSCLC, 1.86 µM with HOP-92 NSCLC, 2.52 µM in the experiment with SF-295 CNS and 3.45 µM with KM12 colon. Moreover, the TGI in the experiment on IGROV1 ovarian was found to be 6.37 µM; in the experiment with OVCAR-4 ovarian it was 28.4 µM; in the experiment on SK-MEL-2 melanoma, 6.13 µM; in the experiment on HCT-116 colon, 15.8 µM; in the experiment on OVCAR-3 ovarian it was 40.6 µM; in the experiment with HS 578T breast it was 20 µM. Further, the TGI in the experiment on HOP-62 NSCLC turned out to be 94.8 µM; in the experiment with HOP-92 NSCLC, 4.74 µM; with SF-295 CNS, 8.65 µM; in the experiment on KM12 colon, 22.9 µM.
`Nc1nc(N)c2cc(Sc3ccc4ccccc4c3)ccc2n1`: the GI50 was 0.817 µM in the experiment on IGROV1 ovarian and 1.68 µM in the experiment with SK-MEL-2 melanoma. Also, the TGI in the experiment on IGROV1 ovarian stood at 14.1 µM; in the experiment on OVCAR-4 ovarian, 5.26 µM; in the experiment on SK-MEL-2 melanoma it was 3.42 µM; in the experiment with HCT-116 colon it was 1.69 µM; in the experiment on OVCAR-3 ovarian, 8.63 µM; with HS 578T breast it was 9.17 µM. For the same compound, the TGI in the experiment on HOP-62 NSCLC turned out to be 4.35 µM; in the experiment on HOP-92 NSCLC, 5.44 µM; in the experiment on SF-295 CNS, 4.91 µM; with KM12 colon, 3.25 µM.
As to `CCSc1ccc([C@@H]2[C@@H](O)C(=O)N2c2cc(OC)c(OC)c(OC)c2)cc1`, the GI50 with IGROV1 ovarian is 0.0235 µM; in the experiment with OVCAR-4 ovarian, 0.0674 µM; in the experiment with SK-MEL-2 melanoma it was 0.0221 µM; in the experiment on HCT-116 colon, less than 0.011 µM; with OVCAR-3 ovarian it was less than 0.01 µM; with HS 578T breast it was less than 0.01 µM. Further, the GI50 with HOP-62 NSCLC is less than 0.0125 µM; with SF-295 CNS, less than 0.01 µM; in the experiment with KM12 colon it was less than 0.0133 µM. The TGI in the experiment with IGROV1 ovarian is 66.2 µM; in the experiment with OVCAR-4 ovarian it was 75.8 µM; with SK-MEL-2 melanoma it was 28.4 µM; in the experiment with HCT-116 colon, 3.06 µM; in the experiment with OVCAR-3 ovarian, 0.548 µM; in the experiment with HS 578T breast, greater than 69.2 µM. The TGI in the experiment with HOP-62 NSCLC was 32.5 µM; with HOP-92 NSCLC it was 42.1 µM; in the experiment on SF-295 CNS it was 17.5 µM; in the experiment with KM12 colon it was 33.7 µM.
As for `CCC(=O)N/S(=N/S(=O)(=O)c1ccccc1)C(Cl)(Cl)Cl` (stereo unspecified), the TGI in the experiment with IGROV1 ovarian, in the experiment with OVCAR-4 ovarian, in the experiment on SK-MEL-2 melanoma, in the experiment with HCT-116 colon, in the experiment with OVCAR-3 ovarian and in the experiment with HS 578T breast was greater than 100 µM each time. Moreover, the TGI in the experiment on HOP-62 NSCLC, in the experiment with HOP-92 NSCLC, with SF-295 CNS and in the experiment with KM12 colon was greater than 100 µM in each case.

Values taken from PubChem BioAssay (NCI).
